Measurements from patent publication US20130158111A1, “Compositions and Methods for Depleting Mutant p53” (Georgetown University, priority 2011, published 2013).

Tests used:
[1] = target: T1, mutant p53 protein in H596 (G245C) non-small-cell lung cancer cells (Homo sapiens, UniProt P04637, G245C); test: Immunoblot of mutant p53 protein in H596 cells; type: cell-based
T1 construct: host or cells: H596
Source text: Human H596, A549, HCT116, MDA-MB-231, MDA-MB-468, MCF-7, DU145, MCF-10A, SW480, and SCC-4 cells were obtained from ATCC (Manassas, Va.). H1299-175H cells were kindly provided by Dr. Maria Laura Avantaggiati (Georgetown University). Cells were maintained in DMEM or RPMI-1640 medium supplemented with 10% FBS (Hyclone). […] 2,2-Diphenylethyl ITC, 4-phenoxybenzyl ITC, 4-methoxybenzyl ITC, 4-chlorobenzyl ITC, Dα-methylbenzyl ITC, trityl ITC, and 3-phenylpropyl ITC were purchased from Trans World Chemicals (Rockville, Md.). Erucin and 4-phenylbutyl ITC were from LKT Laboratories, Inc. (St. Paul, Minn.). […] The p53 DO-1 and β-actin antibodies were purchased from Santa Cruz Biotechnology (Santa Cruz, Calif.), horseradish peroxidase-labeled goat antimouse secondary antibodies were purchased from GE-Healthcare (Pittsburgh, Pa.), and Bio-Rad Protein Assay was from Bio-Rad (Hercules, Calif.).
Whole cell lysates were prepared in lysis buffer (20 mM HEPES, pH 7.4, 2 mM EGTA, 50 mM β-glycerol phosphate, 1% Triton X-100, 10% glycerol, 1 mM DTT, 1 mM PMSF, […], 1 mM Na3-VO4, and 5 mM NaF). For immunoblot analysis, equal amounts of protein were resolved on 4-12% NuPAGE BisTris gels (Invitrogen) and transferred to PVDF membranes (Millipore). The membranes were blocked with 5% milk in TBST and were then probed with p53 (DO-1) or β-actin antibody. Proteins were detected using enhanced chemiluminescence (ECL) reagents (GE Healthcare).

[2] = test system: A549 (WT p53) cell line; test: Cell proliferation, A549; type: cell-based, Human
Method: (§1) Next, the effect of PEITC exposure on tumor growth of the tumor cell lines expressing mutant or the WT p53 protein was examined. […] This hypersensitivity to PEITC being mediated through mutant p53 was next examined. The effect of PEITC on mda-mb-231 cells depleted of mutant p53 by >90% was compared to non-specific (NS) siRNA transfected cells as a control (FIG. 9B). […] Further the effect of PEITC treatment on the level of mutant p53 protein at lower doses was analyzed by western blot analysis (FIG. 9D).

[3] = test system: A549, H596, MCF-7, MDA-MB-231, MDA-MB-468, HCT116 and SW480 cells; test: Caspase-3 colorimetric activity assay (apoptosis), mutant vs wild-type p53 cells; type: cell-based, Human; details: PEITC 24 h; lung, breast and colon cell line sets
Method: Caspase-3 activity was measured by detection of the cleavage of a colorimetric caspase-3 substrate, N-acetyl-Asp-Glu-Val-Asp (DEVD)-p-nitroaniline, using an assay kit (R&D Systems, Inc., Minneapolis, Minn.). The assay was performed according to the instructions of the manufacturer. In brief, cells were treated with drugs for 24 h. The cells were collected and lysed in ice-cold lysis buffer provided by the manufacturer. The same amount of protein extracts (100-200 μg) were incubated in a reaction buffer containing N-acetyl-DEVD-p-nitroaniline at 37 gC for 2-4 h. The levels of the resulting proteolytic fragment p-nitroanilide were measured as optical density at 405 nm with a plate reader. The data represent the mean±SD of three independent experiments.
The role of p53 in the induction of apoptosis by ITCs is not well established and likely to be cell-specific. […] To examine this possibility, we assessed the cytotoxicity induced by PEITC in cancer cells containing either wild-type or mutant p53. Three sets of cell lines from lung, breast, and colon were used: A549 (wild-type p53) and H596 (mutant p53) lung cancer cells, MCF-7 (wild-type p53) and MDA-MB-231 and MDA-MB-468 (mutant p53) breast cancer cells, and HCT116 (wild-type p53) and SW480 (mutant p53) colon cancer cells. After treating with PEITC for 24 h, apoptosis was determined by caspase-3 activity assay.

[4] = target: T2, p53R175H mutant protein in SK-BR-3 cells (Homo sapiens, UniProt P04637, R175H); test: Immunofluorescence with conformation specific antibodies (PAB240, PAB1620); type: cell-based; details: SK-BR-3, PEITC 4 hrs vs DMSO
T2 construct: endogenous in cells; host or cells: SK-BR-3
Method: To determine if the induction of apoptosis is due to the restoration of WT conformation to the mutant p53 protein, immunoflourescence analysis was performed. SK-BR-3 cells expressing p53R175H mutant protein were treated with PEITC or DMSO as a control for 4 hrs. Cells were stained with the conformation specific antibody (PAB240) that recognizes the mutant p53 or antibody specific for the WT p53 protein (PAB1620).

[5] = test system: mda-mb-231 (R280K) cells; test: Cell proliferation, mda-mb-231; type: cell-based, Human
Method: as §1

[6] = test system: DU145 (mutant p53) xenograft tumors; test: Xenograft model, DU145 tumors, PEITC diet; type: in vivo, BALB/C nu/nu transgenic mice
Method: (§2) Briefly, 30 BALB/C nu/nu transgenic mice (purchased from Charles River) were randomized into two groups, and fed with powder diet AlN93 (purchased from Research Diets, Inc.) with or without addition of 5 μM PEITC compound (purchased from Sigma-Aldrich). After two weeks of feeding, two xenograft tumors each carrying […] in a volume of 100 μL were established by injection into both flanks of a mouse. Mice were continuously fed with diets with or without PEITC for additional 8 weeks before sacrifice. Diet intake and tumor volume were measured twice every week. Tumors were harvested at the end of bioassay for immunohistochemistry and immunoblot studies. […] Immunohistochemistry assays were carried out to examine the apoptotic markers, such as TUNEL, and anti-proliferation marker Ki67 in tumors from the PEITC-treated vs. untreated mice. This study provides the first in vivo evidence that mutant p53 can be depleted in tumors of mice fed PEITC-containing diet and its depletion seems to correlate with growth inhibition in the mutant p53 tumors.

[7] = test system: LNCap (wild-type p53) xenograft tumors; test: Xenograft model, LNCap tumors, PEITC diet; type: in vivo, BALB/C nu/nu transgenic mice
Method: as §2

[8] = test system: H522 cells; test: Apoptosis and cell cycle progression, H522; type: cell-based; details: H522, 4 uM PEITC
Source text: The negative effects of PEITC on cell proliferation might affect the apoptotic potential of the cells and the cell cycle progression.

Structure (SMILES): S=C=NCCc1ccccc1 [PEITC, phenethyl isothiocyanate]
- mutant p53 protein level ([1]; H596 (G245C), 15 μM PEITC, immunoblot): rapid depletion
- earliest time at which depletion of mutant p53 occurred ([1]; H596, 15 μM PEITC): 2 h
- time at which depletion of mutant p53 peaked ([1]; H596, 15 μM PEITC, sustained during 24 h treatment): 4 h
- depletion of mutant p53 at equimolar concentrations ([1]; H596, 20 μM ITCs, 24 h, compared with DMSO control): approximately the same extent
- reduction in cell proliferation ([2]; 12 μM PEITC): 25%
- reduction in cell proliferation ([2]; 14 μM PEITC): 45%
- sensitivity of mutant p53 cancer cells vs wild-type cells to PEITC-induced apoptosis (caspase-3 activity) [3]: significantly more sensitive
- conformation of p53R175H mutant (PAB1620 staining) [4]: induced conformation change
- inhibition at 1 µM ([5]; Homo sapiens, mda-mb-231 (R280K), 1 μM PEITC): 55%
- sensitivity to cell growth inhibition ([5]; control (NS) siRNA transfected mda-mb-231 cells): highly sensitive
- sensitivity to cell growth inhibition ([5]; mda-mb-231 cells depleted of mutant p53 by >90% (siRNA)): significant reduction in the sensitivity
- p53 level in tumors detected by immunoblot ([6]; DU145 tumors, PEITC diet): moderate, yet significant, decrease
- tumor volume ([6]; DU145 xenograft, diet with 5 μM PEITC vs diet without PEITC, 8 weeks): significantly decreased
- p53 level in tumors detected by immunoblot ([7]; LNCap tumors, PEITC diet): not in LNCap tumors
- tumor volume ([7]; LNCap xenograft, diet with 5 μM PEITC vs diet without PEITC, 8 weeks): significantly decreased
- apoptosis compared to DMSO treated cells [8]: two fold increase
- cell cycle progression [8]: S-phase arrest
